Experimental data: US20140220110A1, “REMOTE LOADING OF SPARINGLY WATER-SOLUBLE DRUGS INTO LIPOSOMES” (ZONEONE PHARMA, INC., priority 2013, published 2014)

How the values were obtained:
[1] = Reverse gradient-directed drug release from liposomes; format: physicochemical; settings: for % Carfilzomib Released: 65 C 30 min
Method: Liposomes were loaded with carfilzomib as described in Example 1 and were purified into deionized water. The sample was divided into two aliquots. To the first aliquot, concentrated Hepes pH 7.4 and NaCl was added so that the final concentration was 5 mM Hepes, 145 mM NaCl (HBS). To the second aliquot, concentrated ammonium sulfate was added so that the final concentration was 250 mM. No obvious physical changes were initially observed. The samples were then heated at 65° C. for 30 min. The samples were transferred to clean eppendorf tubes and centrifuged for 10,000 rpm for 5 min after which the supernatants and precipitates were separated and tested for carfilzomib content by HPLC assay. Released drug precipitated, liposome encapsulated drug remained in the supernatant. The % carfilzomib released was calculated by […]

[2] = Liposome size by dynamic light scattering; format: physicochemical; settings: liposomes loaded with carfilzomib, before lyophilizing
Method: The lipid concentration is determined by measuring the cholesterol by HPLC using an Agilent 1100 HPLC with and Agilent Zorbax 5 um, […], Eclipse XDB-C8 column and a mobile phase of A=0.1% TFA, B=0.1% TFA/MeOH with an isocratic elution of 99% B. The flow rate is 1.0 mL/min, column temperature is 50° C., 10 μL injection and detection by absorbance at 205 nm. The retention time of cholesterol is 4.5 min. The liposome size is measured by dynamic light scattering.
See Example 1, Carfilzomib liposome entrapment by remote loading for details on how the liposomes were made, purified and characterized.

[3] = Carfilzomib solubility as a function of DMSO content (optical density at 600 nm); format: physicochemical; settings: 0.2 mg/mL carfilzomib
Method: Carfilzomib was added from a stock 10 mg/mL solution in DMSO to 1 mL of a citric acid/DMSO mixture so that the composition of DMSO was 2%, 25%, 50%, 75% and 100%. The final drug concentration was 0.2 mg/mL. The solutions were prepared and measured for optical density at 600 nm. The optical density at 600 nm is a good measure of how turbid or how much scattering material (such as drug precipitates) are in a solution, generally, the more precipitates the higher the absorbance. From FIG. 8 is apparent that at DMSO concentrations below 50% vol/vol (25° C.) and 25% vol/vol (65° C.) the drug remains in a precipitated form. Only when the concentration of DMSO is increased does it become effectively solubilized at this concentration of 0.2 mg/mL.

[4] = Remote loading of carfilzomib precipitate into liposomes (drug and lipid by HPLC after purification); format: physicochemical
[5] = unencapsulated drug; Yang et al 2011; cited from earlier work
[6] = 250 mM ammonium sulfate liposomes, drug added at 200 g drug/mol HSPC
[7] = input drug/HSPC 91.8 g/mol, [(NH4)2SO4] 250 mM
[8] = input drug/HSPC 167.3 g/mol, [(NH4)2SO4] 250 mM
[9] = input drug/HSPC 251.8 g/mol, [(NH4)2SO4] 250 mM
[10] = input drug/HSPC 338.1 g/mol, [(NH4)2SO4] 250 mM
[11] = input drug/HSPC 432.8 g/mol, [(NH4)2SO4] 250 mM
[12] = input drug/HSPC 450.6 g/mol, [(NH4)2SO4] 500 mM
[13] = input drug/HSPC 545.9 g/mol, [(NH4)2SO4] 500 mM
[14] = input drug/HSPC 639.2 g/mol, [(NH4)2SO4] 500 mM
[15] = input drug/HSPC 639.2 g/mol, [(NH4)2SO4] 500 mM, listed as Carfilzomib
[16] = input drug/HSPC 758.7 g/mol, [(NH4)2SO4] 500 mM
[17] = input drug/HSPC 758.7 g/mol, [(NH4)2SO4] 500 mM, listed as Carfilzomib
[18] = triethylammonium sulfate gradient, input 650 g drug/mol HSPC, at 30 min

drug released with reverse gradient over control with no reverse gradient [1]: 6.5 fold
% Carfilzomib Released ([1]; 250 mM ammonium sulfate outside (reverse gradient)): 68.5 ± 1.82%
% Carfilzomib Released ([1]; Hepes buffered saline (no reverse gradient)): 10.6 ± 0.28%
PDI ([2]; (NH4)2SO4, drug added quickly): 0.062
Z-ave ([2]; (NH4)2SO4, drug added quickly): 108 nm
PDI ([2]; (NH4)2SO4, drug added slowly): 0.035
Z-ave ([2]; (NH4)2SO4, drug added slowly): 109.2 nm
PDI ([2]; Mellitic Acid): 0.08
Z-ave ([2]; Mellitic Acid): 105.5 nm
PDI ([2]; Napthelenedisulfonic acid): 0.039
Z-ave ([2]; Napthelenedisulfonic acid): 111.9 nm
DMSO concentration below which the drug remains in a precipitated form ([3]; 25 C): 50 % vol/vol
DMSO required to completely dissolve the drug ([3]; 65 C): > 25 % vol/vol
final drug to lipid ratio [4, 6]: 136.9±7.35 g drug/mol of HSPC
loading efficiency [4, 6]: 67.94±3.67%
loading efficiency ([4]; DMSO 1% and above (up to 10% v/v), input 200 ug/umol, ammonium sulfate liposomes): 74-94%
loading ([4]; DMSO absent): practically no loading
final drug load ([4]; control liposomes with 250 mM sodium sulfate (no gradient), drug added at 200 g drug/mol HSPC): 29.01±0.79 g drug/mol of HSPC
effect of time between precipitate formation and loading on loading efficiency ([4]; delay up to 12 h): does not have a significant impact
efficiency of remote loading ([4]; drug added as solid powder, 65 C for 30 min, 100 g drug/mol HSPC): 3.88%±0.053%
efficiency of remote loading ([4]; drug added as solid powder, 65 C for 120 min, 100 g drug/mol HSPC): 3.47%±0.030%
Drug payload/carrier weight ratio [4, 7]: 0.07 g drug/g total lipid
Output drug/HSPC [4, 7]: 83.5 g/mol
efficiency [4, 7]: 90.9%
Drug payload/carrier weight ratio [4, 8]: 0.11 g drug/g total lipid
Output drug/HSPC [4, 8]: 127.2 g/mol
efficiency [4, 8]: 76.0%
Drug payload/carrier weight ratio [4, 9]: 0.15 g drug/g total lipid
Output drug/HSPC [4, 9]: 174.1 g/mol
efficiency [4, 9]: 69.1%
Drug payload/carrier weight ratio [4, 10]: 0.18 g drug/g total lipid
Output drug/HSPC [4, 10]: 210.7 g/mol
efficiency [4, 10]: 62.3%
Drug payload/carrier weight ratio [4, 11]: 0.20 g drug/g total lipid
Output drug/HSPC [4, 11]: 240.5 g/mol
efficiency [4, 11]: 55.6%
Drug payload/carrier weight ratio [4, 12]: 0.29 g drug/g total lipid
Output drug/HSPC [4, 12]: 345.2 g/mol
efficiency [4, 12]: 76.6%
Drug payload/carrier weight ratio [4, 13]: 0.32 g drug/g total lipid
Output drug/HSPC [4, 13]: 380.9 g/mol
efficiency [4, 13]: 69.8%
Drug payload/carrier weight ratio [4, 14]: 0.37 g drug/g total lipid
Output drug/HSPC [4, 14]: 440 ± 10.2 g/mol
efficiency [4, 14]: 68.7±4.80%
Output drug/HSPC [4, 15]: 438.9 g/mol
efficiency [4, 15]: 68.7%
Drug payload/carrier weight ratio [4, 16]: 0.4 g drug/g total lipid
Output drug/HSPC [4, 16]: 469 ± 4.9 g/mol
efficiency [4, 16]: 61.7±1.2%
Drug payload/carrier weight ratio [4, 17]: 0.40 g drug/g total lipid
Output drug/HSPC [4, 17]: 468.2 g/mol
efficiency [4, 17]: 61.7%
efficiency of remote loading ([4]; room temperature, 3 POPC/2 Chol/0.15 PEG-DSPE liposomes, 187 g drug/mol): 100.52%±1.01%
efficiency of remote loading ([4]; room temperature, 95 PChemsPC/5 PEG-DSPE liposomes, 100 g drug/mol PChemsPC): 95.5%±1.23%
efficiency of remote loading ([4]; trapping agent mellitic acid, 100 g drug/mol HSPC): 37.4%±2.01%
efficiency of remote loading ([4]; trapping agent napthelenedisulfonic acid, 100 g drug/mol HSPC): 95.1%±1.76%
efficiency [4, 18]: 65.9±1.98%
greatest payload achieved [4, 18]: 440±12.6 g drug/mol HSPC
SMILES: CC(C)C[C@H](NC(=O)[C@H](CCc1ccccc1)NC(=O)CN1CCOCC1)C(=O)N[C@@H](Cc1ccccc1)C(=O)N[C@@H](CC(C)C)C(=O)[C@@]1(C)CO1 [carfilzomib]
degradation of released drug (HPLC chromatogram against starting material) ([1]; after loading and release by reverse gradient): no degradation of carfilzomib had taken place
t1/2 in the blood stream [5]: < 20 min
